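Cultured in 96-well plates, cells were exposed to test compound for 48 hours across five concentrations. TGI: total growth inhibition.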
Assays:
Assay in all cases: NCI-60 cell line screen, 48 h
BT-549 breast = tested on: BT-549 breast
A549 NSCLC = tested on: A549 NSCLC
MCF7 breast = tested on: MCF7 breast
NCI-H226 lung = tested on: NCI-H226 lung
TK-10 renal = tested on: TK-10 renal
HOP-92 NSCLC = tested on: HOP-92 NSCLC
NCI-H23 lung = tested on: NCI-H23 lung
UACC-62 melanoma = tested on: UACC-62 melanoma
UACC-257 melanoma = tested on: UACC-257 melanoma
DU-145 prostate = tested on: DU-145 prostate
SF-295 CNS = tested on: SF-295 CNS
IGROV1 ovarian = tested on: IGROV1 ovarian
SK-OV-3 ovarian = tested on: SK-OV-3 ovarian
786-0 renal = tested on: 786-0 renal
SW-620 colon = tested on: SW-620 colon
COLO 205 colon = tested on: COLO 205 colon
LOX IMVI melanoma = tested on: LOX IMVI melanoma
HOP-62 NSCLC = tested on: HOP-62 NSCLC
HCT-116 colon = tested on: HCT-116 colon
SK-MEL-28 melanoma = tested on: SK-MEL-28 melanoma

## CCOc1ncn(-c2ccc(NC(=S)Nc3cnccn3)cc2)n1
BT-549 breast
  TGI: > 10 µM
A549 NSCLC
  TGI: > 10 µM
MCF7 breast
  TGI: > 10 µM
NCI-H226 lung
  TGI: > 10 µM
TK-10 renal
  TGI: > 10 µM
HOP-92 NSCLC
  TGI: > 10 µM
NCI-H23 lung
  TGI: > 10 µM
UACC-62 melanoma
  TGI: > 10 µM
UACC-257 melanoma
  TGI: > 10 µM
DU-145 prostate
  TGI: > 10 µM
SF-295 CNS
  TGI: > 10 µM
IGROV1 ovarian
  TGI: > 10 µM
SK-OV-3 ovarian
  TGI: > 10 µM
786-0 renal
  TGI: > 10 µM

## COc1cc(/C=C2\N=C(c3ccccc3)N(c3nc4cc(C)c(C)cc4s3)C2=O)cc(OC)c1OC
BT-549 breast
  TGI: > 100 µM
A549 NSCLC
  TGI: > 100 µM
SW-620 colon
  TGI: > 100 µM
MCF7 breast
  TGI: 43 µM
COLO 205 colon
  TGI: > 100 µM
LOX IMVI melanoma
  TGI: 68.7 µM
HOP-62 NSCLC
  TGI: 66.6 µM
TK-10 renal
  TGI: > 100 µM
HCT-116 colon
  TGI: 50.4 µM
HOP-92 NSCLC
  TGI: 64.8 µM
UACC-62 melanoma
  TGI: > 100 µM
UACC-257 melanoma
  TGI: > 100 µM
DU-145 prostate
  TGI: > 100 µM
SK-MEL-28 melanoma
  TGI: > 100 µM
SF-295 CNS
  TGI: > 100 µM
IGROV1 ovarian
  TGI: > 100 µM
SK-OV-3 ovarian
  TGI: > 100 µM
786-0 renal
  TGI: > 100 µM

## N#Cc1c(N)c2c(c(-c3ccccc3)c1-c1ccccc1)C(=O)N(Nc1ccccc1)C2=O
BT-549 breast
  TGI: > 100 µM
A549 NSCLC
  TGI: > 100 µM
SW-620 colon
  TGI: > 100 µM
MCF7 breast
  TGI: > 100 µM
COLO 205 colon
  TGI: 56.7 µM
LOX IMVI melanoma
  TGI: 86.8 µM
NCI-H226 lung
  TGI: > 100 µM
TK-10 renal
  TGI: > 100 µM
HCT-116 colon
  TGI: 43.7 µM
HOP-92 NSCLC
  TGI: > 100 µM
UACC-62 melanoma
  TGI: > 100 µM
UACC-257 melanoma
  TGI: > 100 µM
DU-145 prostate
  TGI: > 100 µM
SK-MEL-28 melanoma
  TGI: > 100 µM
SF-295 CNS
  TGI: > 100 µM
IGROV1 ovarian
  TGI: > 100 µM
786-0 renal
  TGI: > 100 µM

## CCN(CC)CCSc1n[nH]c(-c2c[nH]c3nc(C)ccc3c2=O)n1
BT-549 breast
  TGI: > 100 µM
A549 NSCLC
  TGI: > 100 µM
SW-620 colon
  TGI: > 100 µM
MCF7 breast
  TGI: > 100 µM
COLO 205 colon
  TGI: > 100 µM
LOX IMVI melanoma
  TGI: > 100 µM
HOP-62 NSCLC
  TGI: > 100 µM
NCI-H226 lung
  TGI: > 100 µM
TK-10 renal
  TGI: > 100 µM
HCT-116 colon
  TGI: > 100 µM
NCI-H23 lung
  TGI: > 100 µM
UACC-62 melanoma
  TGI: > 100 µM
UACC-257 melanoma
  TGI: > 100 µM
DU-145 prostate
  TGI: > 100 µM
SK-MEL-28 melanoma
  TGI: > 100 µM
SF-295 CNS
  TGI: > 100 µM
IGROV1 ovarian
  TGI: > 100 µM
786-0 renal
  TGI: > 100 µM

## FC(F)(F)c1ccc2c(c1)nc(Cc1ccc(Cl)c(Cl)c1)n2CC1CCCN2CCCCC12 (configuration not stated)
BT-549 breast
  TGI: 85.2 µM
A549 NSCLC
  TGI: 44.2 µM
SW-620 colon
  TGI: > 100 µM
MCF7 breast
  TGI: 62.9 µM
COLO 205 colon
  TGI: 33.5 µM
LOX IMVI melanoma
  TGI: 31.6 µM
HOP-62 NSCLC
  TGI: > 100 µM
NCI-H226 lung
  TGI: 90.7 µM
TK-10 renal
  TGI: 74.9 µM
HCT-116 colon
  TGI: 30.6 µM
HOP-92 NSCLC
  TGI: > 100 µM
UACC-62 melanoma
  TGI: 30.2 µM
UACC-257 melanoma
  TGI: 41 µM
DU-145 prostate
  TGI: > 100 µM
SK-MEL-28 melanoma
  TGI: 53.8 µM
SF-295 CNS
  TGI: 51.7 µM
IGROV1 ovarian
  TGI: > 100 µM
SK-OV-3 ovarian
  TGI: 90 µM
786-0 renal
  TGI: 30.7 µM

## Brc1cccc(Nc2ncnc3sc4c(c23)CCC(Nc2cccc(Br)c2)C4)c1 (configuration not stated)
BT-549 breast
  TGI: > 100 µM
A549 NSCLC
  TGI: > 100 µM
SW-620 colon
  TGI: > 100 µM
MCF7 breast
  TGI: > 100 µM
COLO 205 colon
  TGI: > 100 µM
LOX IMVI melanoma
  TGI: > 100 µM
HOP-62 NSCLC
  TGI: > 100 µM
TK-10 renal
  TGI: > 100 µM
HCT-116 colon
  TGI: > 100 µM
HOP-92 NSCLC
  TGI: > 100 µM
NCI-H23 lung
  TGI: > 100 µM
UACC-62 melanoma
  TGI: > 100 µM
UACC-257 melanoma
  TGI: > 100 µM
DU-145 prostate
  TGI: > 100 µM
SK-MEL-28 melanoma
  TGI: > 100 µM
SF-295 CNS
  TGI: > 100 µM
IGROV1 ovarian
  TGI: > 100 µM
SK-OV-3 ovarian
  TGI: > 100 µM
786-0 renal
  TGI: > 100 µM

## COc1cc(OC)cc(-n2c(N)c(-c3nc4ccccc4s3)c3ccc([N+](=O)[O-])cc3c2=O)c1
BT-549 breast
  TGI: > 100 µM
SW-620 colon
  TGI: > 100 µM
MCF7 breast
  TGI: > 100 µM
COLO 205 colon
  TGI: > 100 µM
LOX IMVI melanoma
  TGI: > 100 µM
NCI-H226 lung
  TGI: > 100 µM
TK-10 renal
  TGI: 38.8 µM
HCT-116 colon
  TGI: > 100 µM
HOP-92 NSCLC
  TGI: 15.8 µM
NCI-H23 lung
  TGI: > 100 µM
UACC-62 melanoma
  TGI: > 100 µM
UACC-257 melanoma
  TGI: > 100 µM
DU-145 prostate
  TGI: > 100 µM
SK-MEL-28 melanoma
  TGI: > 100 µM
SF-295 CNS
  TGI: > 100 µM
SK-OV-3 ovarian
  TGI: > 100 µM
786-0 renal
  TGI: > 100 µM

## COc1cccc(CCn2c(N)c(C(=O)O)c3ccc([N+](=O)[O-])cc3c2=O)c1
BT-549 breast
  TGI: 87.4 µM
A549 NSCLC
  TGI: > 100 µM
SW-620 colon
  TGI: > 100 µM
MCF7 breast
  TGI: 57.7 µM
COLO 205 colon
  TGI: 45.9 µM
LOX IMVI melanoma
  TGI: > 100 µM
HOP-62 NSCLC
  TGI: > 100 µM
NCI-H226 lung
  TGI: > 100 µM
HCT-116 colon
  TGI: > 100 µM
NCI-H23 lung
  TGI: 64.7 µM
UACC-62 melanoma
  TGI: > 100 µM
DU-145 prostate
  TGI: > 100 µM
SK-MEL-28 melanoma
  TGI: > 100 µM
SF-295 CNS
  TGI: > 100 µM
IGROV1 ovarian
  TGI: > 100 µM
SK-OV-3 ovarian
  TGI: > 100 µM
786-0 renal
  TGI: > 100 µM

## CC1(C)C(=O)N(O)C(C)(C)N1N=O
BT-549 breast
  TGI: > 10 µM
A549 NSCLC
  TGI: > 10 µM
SW-620 colon
  TGI: > 10 µM
MCF7 breast
  TGI: > 10 µM
COLO 205 colon
  TGI: > 10 µM
HOP-62 NSCLC
  TGI: > 10 µM
NCI-H226 lung
  TGI: > 10 µM
TK-10 renal
  TGI: > 10 µM
HCT-116 colon
  TGI: > 10 µM
HOP-92 NSCLC
  TGI: > 10 µM
NCI-H23 lung
  TGI: > 10 µM
UACC-257 melanoma
  TGI: > 10 µM
DU-145 prostate
  TGI: > 10 µM
SF-295 CNS
  TGI: > 10 µM
786-0 renal
  TGI: > 10 µM

## O=S(Nc1ccccc1)c1ccc(-c2ccccc2)cc1 (configuration not stated)
BT-549 breast
  TGI: > 100 µM
A549 NSCLC
  TGI: > 100 µM
SW-620 colon
  TGI: > 100 µM
MCF7 breast
  TGI: > 100 µM
COLO 205 colon
  TGI: > 100 µM
LOX IMVI melanoma
  TGI: > 100 µM
HOP-62 NSCLC
  TGI: > 100 µM
NCI-H226 lung
  TGI: > 100 µM
TK-10 renal
  TGI: > 100 µM
HCT-116 colon
  TGI: > 100 µM
NCI-H23 lung
  TGI: > 100 µM
UACC-62 melanoma
  TGI: > 100 µM
UACC-257 melanoma
  TGI: > 100 µM
DU-145 prostate
  TGI: > 100 µM
SK-MEL-28 melanoma
  TGI: > 100 µM
SF-295 CNS
  TGI: > 100 µM
IGROV1 ovarian
  TGI: > 100 µM
786-0 renal
  TGI: > 100 µM

## C/C(=N/NC(=S)N(C)CCc1ccccn1)c1cnccn1
BT-549 breast
  TGI: 10.2 µM
A549 NSCLC
  TGI: 11.5 µM
SW-620 colon
  TGI: 32.2 µM
MCF7 breast
  TGI: 30.6 µM
COLO 205 colon
  TGI: 21.8 µM
HOP-62 NSCLC
  TGI: 9.62 µM
NCI-H226 lung
  TGI: 0.0122 µM
TK-10 renal
  TGI: 14.8 µM
HCT-116 colon
  TGI: 18 µM
HOP-92 NSCLC
  TGI: 21.2 µM
NCI-H23 lung
  TGI: 13 µM
UACC-257 melanoma
  TGI: 34.6 µM
DU-145 prostate
  TGI: > 32 µM
SK-MEL-28 melanoma
  TGI: 40.3 µM
SF-295 CNS
  TGI: 4.65 µM
SK-OV-3 ovarian
  TGI: 0.947 µM
786-0 renal
  TGI: 6.8 µM

## CC1=CSC(O)(c2ccc(Cl)cc2)c2noc(=O)n21 (configuration not stated)
BT-549 breast
  TGI: > 100 µM
A549 NSCLC
  TGI: > 100 µM
SW-620 colon
  TGI: > 100 µM
MCF7 breast
  TGI: > 100 µM
COLO 205 colon
  TGI: > 100 µM
HOP-62 NSCLC
  TGI: > 100 µM
NCI-H226 lung
  TGI: > 100 µM
TK-10 renal
  TGI: > 100 µM
HCT-116 colon
  TGI: > 100 µM
HOP-92 NSCLC
  TGI: > 100 µM
NCI-H23 lung
  TGI: > 100 µM
UACC-62 melanoma
  TGI: > 100 µM
UACC-257 melanoma
  TGI: 60.3 µM
DU-145 prostate
  TGI: > 100 µM
SK-MEL-28 melanoma
  TGI: > 100 µM
SF-295 CNS
  TGI: > 100 µM
IGROV1 ovarian
  TGI: > 100 µM
SK-OV-3 ovarian
  TGI: > 100 µM
786-0 renal
  TGI: > 100 µM

## COC(=O)/C=C\[C@@H]1[C@H](C)N1S(=O)(=O)c1ccc(C)cc1 (some centres not stated)
BT-549 breast
  TGI: > 100 µM
A549 NSCLC
  TGI: > 100 µM
SW-620 colon
  TGI: > 100 µM
MCF7 breast
  TGI: > 100 µM
COLO 205 colon
  TGI: > 100 µM
LOX IMVI melanoma
  TGI: > 100 µM
HOP-62 NSCLC
  TGI: > 100 µM
NCI-H226 lung
  TGI: > 100 µM
TK-10 renal
  TGI: > 100 µM
HCT-116 colon
  TGI: > 100 µM
NCI-H23 lung
  TGI: > 100 µM
UACC-62 melanoma
  TGI: > 100 µM
UACC-257 melanoma
  TGI: > 100 µM
DU-145 prostate
  TGI: > 100 µM
SK-MEL-28 melanoma
  TGI: > 100 µM
SF-295 CNS
  TGI: > 100 µM
IGROV1 ovarian
  TGI: > 100 µM
SK-OV-3 ovarian
  TGI: > 100 µM
786-0 renal
  TGI: > 100 µM

Source: PubChem BioAssay (NCI)
